Test results published in ChEMBL document CHEMBL6103575, “Design, synthesis and evaluation of (E)-1-(4-(2-(1H-pyrazol-5-yl)vinyl)phenyl) derivatives as next generation selective RET inhibitors overcoming RET solvent front mutations (G810C/R)” (Eur J Med Chem, 2025).

What was measured:
BaF3 [1] = assay: Inhibition of RET phosphorylation in mouse BaF3 cells harboring CCDC6-RET G810R mutant incubated for 12 hrs by Western blotting analysis; assay type: cell-based; details: dose <= 300.0 nM
[2] = Induction of apoptosis in mouse BaF3 cells harboring CCDC6-RET G810C mutant assessed as late apoptotic cells at 300 nM incubated for 48 hrs by Annexin V-PE staining based flow cytometry analysis (Rvb =4.30%); assay type: functional
[3] = Induction of cell cycle arrest in mouse BaF3 cells harboring CCDC6-RET G810C mutant assessed as accumulation of cells at G0/G1 phase at 300 nM incubated for 24 hrs by propidium iodide staining based analysis (reference value: 52.11%); assay type: functional
[4] = Induction of apoptosis in mouse BaF3 cells harboring CCDC6-RET assessed as necrotic cells at 30 nM incubated for 48 hrs by Annexin V-PE staining based flow cytometry analysis (Rvb =0.19%); assay type: functional
BaF3 [5] = assay: Antiproliferative activity against mouse BaF3 cells harbouring CCDC6-RET G810R mutant assessed as inhibition of cell proliferation incubated for 72 hrs by CCK-8 assay; assay type: functional, cell-based; details: BaF3, 72 h
[6] = Induction of cell cycle arrest in mouse BaF3 cells harboring CCDC6-RET G810C mutant assessed as accumulation of cells at G0/G1 phase at 30 nM incubated for 24 hrs by propidium iodide staining based analysis (reference value: 52.11%); assay type: functional
[7] = Induction of apoptosis in mouse BaF3 cells harboring CCDC6-RET assessed as viable cells at 100 nM incubated for 48 hrs by Annexin V-PE staining based flow cytometry analysis (Rvb =91.16%); assay type: functional; details: read-out: Activity
[8] = Induction of cell cycle arrest in mouse BaF3 cells harboring CCDC6-RET assessed as accumulation of cells at G0/G1 phase at 100 nM incubated for 24 hrs by propidium iodide staining based analysis (reference value: 52.51%); assay type: functional
[9] = Induction of apoptosis in mouse BaF3 cells harboring CCDC6-RET assessed as early apoptotic cells at 10 nM incubated for 48 hrs by Annexin V-PE staining based flow cytometry analysis (Rvb =6.21%); assay type: functional
[10] = Induction of apoptosis in mouse BaF3 cells harboring CCDC6-RET assessed as late apoptotic cells at 100 nM incubated for 48 hrs by Annexin V-PE staining based flow cytometry analysis (Rvb =2.44%); assay type: functional
[11] = Induction of cell cycle arrest in mouse BaF3 cells harboring CCDC6-RET assessed as accumulation of cells at S phase at 100 nM incubated for 24 hrs by propidium iodide staining based analysis (reference value: 13.27%); assay type: functional
[12] = Induction of cell cycle arrest in mouse BaF3 cells harboring CCDC6-RET G810R mutant assessed as accumulation of cells at G0/G1 phase at 10 nM incubated for 24 hrs by propidium iodide staining based analysis (reference value: 52.63%); assay type: functional
[13] = Induction of cell cycle arrest in mouse BaF3 cells harboring CCDC6-RET G810C mutant assessed as accumulation of cells at G0/G1 phase at 10 nM incubated for 24 hrs by propidium iodide staining based analysis (reference value: 52.11%); assay type: functional
[14] = Induction of cell cycle arrest in mouse BaF3 cells harboring CCDC6-RET assessed as accumulation of cells at S phase at 10 nM incubated for 24 hrs by propidium iodide staining based analysis (reference value: 13.27%); assay type: functional
[15] = Induction of apoptosis in mouse BaF3 cells harboring CCDC6-RET assessed as late apoptotic cells at 30 nM incubated for 48 hrs by Annexin V-PE staining based flow cytometry analysis (Rvb =2.44%); assay type: functional
[16] = Induction of apoptosis in mouse BaF3 cells harboring CCDC6-RET G810R mutant assessed as necrotic cells at 300 nM incubated for 48 hrs by Annexin V-PE staining based flow cytometry analysis (Rvb =0.30%); assay type: functional
[17] = Induction of cell cycle arrest in mouse BaF3 cells harboring CCDC6-RET assessed as accumulation of cells at G2/M phase at 100 nM incubated for 24 hrs by propidium iodide staining based analysis (reference value: 34.11%); assay type: functional
[18] = Induction of cell cycle arrest in mouse BaF3 cells harboring CCDC6-RET assessed as accumulation of cells at G0/G1 phase at 300 nM incubated for 24 hrs by propidium iodide staining based analysis (reference value: 52.51%); assay type: functional
[19] = Induction of cell cycle arrest in mouse BaF3 cells harboring CCDC6-RET G810C mutant assessed as accumulation of cells at S phase at 100 nM incubated for 24 hrs by propidium iodide staining based analysis (reference value: 12.47%); assay type: functional
[20] = Induction of apoptosis in mouse BaF3 cells harboring CCDC6-RET G810C mutant assessed as early apoptotic cells at 300 nM incubated for 48 hrs by Annexin V-PE staining based flow cytometry analysis (Rvb =8.74%); assay type: functional
[21] = Induction of cell cycle arrest in mouse BaF3 cells harboring CCDC6-RET G810C mutant assessed as accumulation of cells at G2/M phase at 10 nM incubated for 24 hrs by propidium iodide staining based analysis (reference value: 34.75%); assay type: functional
[22] = Induction of apoptosis in mouse BaF3 cells harboring CCDC6-RET G810R mutant assessed as early apoptotic cells at 100 nM incubated for 48 hrs by Annexin V-PE staining based flow cytometry analysis (Rvb =10 %); assay type: functional
BaF3 [23] = assay: Antiproliferative activity against mouse BaF3 cells harbouring CCDC6-RET V804M mutant assessed as inhibition of cell proliferation incubated for 72 hrs by CCK-8 assay; assay type: functional, cell-based; details: BaF3, 72 h
[24] = Induction of apoptosis in mouse BaF3 cells harboring CCDC6-RET G810R mutant assessed as late apoptotic cells at 30 nM incubated for 48 hrs by Annexin V-PE staining based flow cytometry analysis (Rvb =3.21%); assay type: functional
Ephrin type-A receptor 2 = Ephrin type-A receptor 2 (Homo sapiens, UniProt P29317); assay: Inhibition of EPHA2 (unknown origin) at 1 uM relative to control
Ephrin type-A receptor 2, sequence (P29317 whole entry): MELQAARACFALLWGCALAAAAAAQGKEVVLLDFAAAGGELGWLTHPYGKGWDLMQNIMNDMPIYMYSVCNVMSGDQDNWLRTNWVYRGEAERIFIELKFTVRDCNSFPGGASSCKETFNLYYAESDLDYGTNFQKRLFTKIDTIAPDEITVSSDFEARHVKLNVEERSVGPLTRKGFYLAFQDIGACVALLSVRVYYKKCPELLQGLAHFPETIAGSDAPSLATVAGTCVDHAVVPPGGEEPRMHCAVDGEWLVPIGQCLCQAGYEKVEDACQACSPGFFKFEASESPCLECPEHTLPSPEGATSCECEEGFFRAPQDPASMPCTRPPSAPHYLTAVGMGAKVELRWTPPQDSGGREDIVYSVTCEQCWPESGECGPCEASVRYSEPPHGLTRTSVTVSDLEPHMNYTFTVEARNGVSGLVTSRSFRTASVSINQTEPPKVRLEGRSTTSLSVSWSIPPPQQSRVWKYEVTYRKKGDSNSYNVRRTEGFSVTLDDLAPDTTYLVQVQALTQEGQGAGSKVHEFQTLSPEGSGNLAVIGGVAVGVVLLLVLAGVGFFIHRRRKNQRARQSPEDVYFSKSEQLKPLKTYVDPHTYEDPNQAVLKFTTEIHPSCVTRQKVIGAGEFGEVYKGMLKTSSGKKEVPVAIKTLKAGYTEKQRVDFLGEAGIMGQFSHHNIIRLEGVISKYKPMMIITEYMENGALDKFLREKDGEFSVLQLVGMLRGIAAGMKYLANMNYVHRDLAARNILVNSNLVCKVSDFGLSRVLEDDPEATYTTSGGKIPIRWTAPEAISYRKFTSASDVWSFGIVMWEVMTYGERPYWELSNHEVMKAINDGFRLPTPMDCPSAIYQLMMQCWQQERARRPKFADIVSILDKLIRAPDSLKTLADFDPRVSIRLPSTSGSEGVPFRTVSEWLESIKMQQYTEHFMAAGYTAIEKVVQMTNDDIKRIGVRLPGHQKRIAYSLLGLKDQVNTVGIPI

[25] = Induction of cell cycle arrest in mouse BaF3 cells harboring CCDC6-RET G810R mutant assessed as accumulation of cells at G2/M phase at 100 nM incubated for 24 hrs by propidium iodide staining based analysis (reference value: 33.61%); assay type: functional
BaF3 [26] = assay: Inhibition of SHC phosphorylation in mouse BaF3 cells harboring CCDC6-RET G810R mutant incubated for 12 hrs by Western blotting analysis; assay type: cell-based; details: dose <= 300.0 nM
[27] = Induction of apoptosis in mouse BaF3 cells harboring CCDC6-RET G810R mutant assessed as early apoptotic cells at 300 nM incubated for 48 hrs by Annexin V-PE staining based flow cytometry analysis (Rvb =10 %); assay type: functional
[28] = Induction of apoptosis in mouse BaF3 cells harboring CCDC6-RET G810R mutant assessed as viable cells at 10 nM incubated for 48 hrs by Annexin V-PE staining based flow cytometry analysis (Rvb =86.40%); assay type: functional; details: read-out: Activity
[29] = Induction of apoptosis in mouse BaF3 cells harboring CCDC6-RET G810C mutant assessed as early apoptotic cells at 10 nM incubated for 48 hrs by Annexin V-PE staining based flow cytometry analysis (Rvb =8.74%); assay type: functional

Compound: COc1cncc(-c2cn[nH]c2/C=C/c2ccc(NC(=O)Nc3cc(C(C)(C)C(F)(F)F)on3)c(Cl)c2)c1
- inhibition (BaF3 [1]): Dose-dependent-effect
- Activity [2]: 0.31%
- Activity [3]: 72.47%
- Activity [4]: 0.03%
- IC50 (BaF3 [5]): 28.4 nM
- Activity [6]: 57.08%
- viability at 0.1 µM [7]: 24%
- Activity [8]: 69.43%
- Activity [9]: 8.7%
- Activity [10]: 1.21%
- Activity [11]: 7.33%
- Activity [12]: 54.03%
- Activity [13]: 52.74%
- Activity [14]: 13.37%
- Activity [15]: 0.8%
- Activity [16]: 0.07%
- Activity [17]: 23.17%
- Activity [18]: 84.1%
- Activity [19]: 6.84%
- Activity [20]: 91.44%
- Activity [21]: 33.74%
- Activity [22]: 2.7%
- IC50 (BaF3 [23]): 563 nM
- Activity [24]: 2.48%
- inhibition (Ephrin type-A receptor 2): 100%
- Activity [25]: 28.68%
- inhibition (BaF3 [26]): Dose-dependent-effect
- Activity [27]: 0.29%
- viability at 0.01 µM [28]: 86.4%
- Activity [29]: 9.11%
